This passage reports Activity and CC50 results from ChEMBL document CHEMBL6103655, “Structure and Synthesis of Amatyemides A and B, Cyclic Octadepsipeptides from South African Stromatolites” (2025).

The CC50 is the concentration at which the toxic effect on the cells reaches its halfway point. A low value points to greater toxicity to the cells.

The source made the active and inactive calls. No cut-off for these calls is given here.

The subject of assay [1] is Pseudomonas aeruginosa. Kind of assay: Antimicrobial activity against Pseudomonas aeruginosa ATCC […] at 0.14 mg/mL in broth medium incubated for 14 to 16 hrs by Synergy4 plate reader analysis. Conditions: time 14-16 hrs. The format is functional, organism-based.
The test system of assay [2] is Klebsiella pneumoniae. Kind of assay: Antimicrobial activity against Klebsiella pneumoniae ATCC BAA-2344 at 0.14 mg/mL in broth medium incubated for 14 to 16 hrs by Synergy4 plate reader analysis. The assay is classed as functional, organism-based. Particulars: time 14-16 hrs.
The subject of assay [3] is Acinetobacter baumannii. Briefly: Antimicrobial activity against Acinetobacter baumannii ATCC BAA-1605 at 0.14 mg/mL in broth medium incubated for 14 to 16 hrs by Synergy4 plate reader analysis. The format is functional, organism-based. Particulars: time 14-16 hrs.
For assay [4], the system named is U-87 MG. Kind of assay: Induction of oxidative stress in human U-87 MG cells assessed as reduction in GLuc expression at 3 to 6 uM incubated for 18 hrs. The assay is classed as functional, cell-based. Conditions: U-87MG ATCC, dose 3-6 µM.
The test system of assay [5] is Staphylococcus aureus. Briefly: Antimicrobial activity against Staphylococcus aureus subsp. aureus ATCC 700698 at 0.14 mg/mL in broth medium incubated for 14 to 16 hrs by Synergy4 plate reader analysis. Particulars: time 14-16 hrs. The format is functional, organism-based.
Assay [6] deals with HCT-116. Kind of assay: Cytotoxicity against human HCT-116 cells incubated for 72 hrs by CellTiter-Glo assay. The format is functional. Background: In ATP-based viability assays light output follows the ATP content of the culture.
The subject of assay [7] is SH-SY5Y. Briefly: Cytotoxicity against human SH-SY5Y cells assessed as reduction in cell viability at 10 uM incubated for 72 hrs by CellTiter-Glo assay. The assay is classed as functional.
Assay [8] has as its system Candida albicans. Briefly: Antimicrobial activity against Candida albicans ATCC MYA-574 at 0.14 mg/mL in broth medium incubated for 14 to 16 hrs by Synergy4 plate reader analysis. The assay is classed as functional, organism-based. Particulars: time 14-16 hrs.
In assay [9] the test system is Cryptococcus neoformans. Briefly: Antimicrobial activity against Cryptococcus neoformans var. grubii ATCC 90112 at 0.14 mg/mL in broth medium incubated for 14 to 16 hrs by Synergy4 plate reader analysis. The format is functional, organism-based. Conditions: time 14-16 hrs.
In assay [10] the test system is Enterococcus faecium. Kind of assay: Antimicrobial activity against Enterococcus faecium ATCC BAA-2317 at 0.14 mg/mL in broth medium incubated for 14 to 16 hrs by Synergy4 plate reader analysis. The assay is classed as functional, organism-based. Conditions: time 14-16 hrs.
In assay [11] the test system is Escherichia coli. Briefly: Antimicrobial activity against Escherichia coli ATCC BAA-2523 at 0.14 mg/mL in broth medium incubated for 14 to 16 hrs by Synergy4 plate reader analysis. The format is functional, organism-based. Conditions: time 14-16 hrs.
Assay [12] deals with U-87 MG. Kind of assay: Induction of oxidative stress in human U-87 MG cells cultured with GLuc assessed as change in cell viability at 3 to 6 uM incubated for 18 hrs by CellTiter-Glo luminescent assay. Conditions: U-87MG ATCC, dose 3-6 µM. The assay is classed as functional, cell-based.
Assay [13] relates to U-87 MG. Briefly: Induction of oxidative stress in human U-87 MG cells assessed as reduction in GLuc expression at 3 to 6 uM incubated for 18 hrs in the presence of NAC. The format is functional, cell-based. Conditions: U-87MG ATCC, dose 3-6 µM.

Turning to `CCCCCCCCCC[C@H]1OC(=O)[C@H](CC(C)C)N(C)C(=O)[C@H](C(C)C)NC(=O)[C@@H](Cc2ccccc2)NC(=O)[C@H]([C@@H](C)CC)OC(=O)[C@H]([C@@H](C)OC)NC(=O)[C@H](C)NC(=O)[C@H](CC(C)C)NC1=O`, the outcome in [1], in assay [2], in assay [3], in [4], in assay [5] and in assay [7] was inactive. The result in assay [8], in assay [9], in assay [10], in [11], in assay [12] and in assay [13] was inactive. The compound further registered a CC50 in [6] of 3.29 µM.

Consider `C=C(C)[C@H]1Cc2c(ccc3c2O[C@@H]2COc4cc(OC)c(OC)cc4[C@@H]2C3=O)O1`, for which the result in assay [13] was inactive.

Take `CCCCCCCC[C@H]1OC(=O)[C@H](CC(C)C)N(C)C(=O)[C@H](C(C)C)NC(=O)[C@@H](Cc2ccccc2)NC(=O)[C@H]([C@@H](C)CC)OC(=O)[C@H]([C@@H](C)OC)NC(=O)[C@H](C)NC(=O)[C@H](CC(C)C)NC1=O` (stereo in doubt; 2a) [listing 1 of 2 here]: the 50% cytotoxic concentration (CC50) in assay [6] was 1.75 µM. Further, the Activity in assay [7] is recorded as approximately 50%.

In the case of `CCCCCCCC[C@H]1OC(=O)[C@H](CC(C)C)N(C)C(=O)[C@H](C(C)C)NC(=O)[C@@H](Cc2ccccc2)NC(=O)[C@H]([C@@H](C)CC)OC(=O)[C@H]([C@@H](C)OC)NC(=O)[C@H](C)NC(=O)[C@H](CC(C)C)NC1=O` (stereo in doubt; 2), the outcome in assay [1], in [2], in [3], in [5], in assay [8] and in assay [9] was inactive. Besides, the result in assay [10], in assay [11], in [12] and in assay [13] was inactive. For the same compound, the result in assay [4] was Active.

For the compound `COc1ccc(C[C@H](NC(=O)/C(C)=C/[C@H]2CSC([C@@H](C)[C@@H](O)C[C@H](C)C[C@H](O)C(C)(C)C)=N2)C(=O)N(C)[C@@H](C)C(=O)N(C)[C@@H]2C(=O)N3CCC[C@H]3C(=O)OC(C)[C@@H]2C)cc1` (some centres undefined), the result in assay [13] was Active.

In the case of `CCCCCCCC[C@H]1OC(=O)[C@H](CC(C)C)N(C)C(=O)[C@H](C(C)C)NC(=O)[C@@H](Cc2ccccc2)NC(=O)[C@H]([C@@H](C)CC)OC(=O)[C@H]([C@@H](C)OC)NC(=O)[C@H](C)NC(=O)[C@H](CC(C)C)NC1=O` (stereo in doubt; 2a) [listing 2 of 2 here], the result in [13] was inactive.
